pIC50: −log10 of the molar value. “And” between values parts separate entries of the source, which are not always exact repeats. Equal values may be shown once.
molecular target: Gag-Pol polyprotein (Human immunodeficiency virus type 1 group M subtype B (isolate HXB2), UniProt P04585); test: Inhibition Assay
Excerpt: Inhibition assay using HIV-1 integrase.

Structure (SMILES) | pIC50
COc1ccc(CN)cc1 | 5.41
O=C(NCc1ccc(Cl)c(Cl)c1)C1C(=O)C(=O)N(CC2CC2)C1c1cccc2c1OCO2 (centres undefined) [Integrase inhibitor, 2{1,1,1}] | 7.30 and 7.41
CC(=O)NC(CCCCN1C(=O)C(=O)C(C(=O)NCc2ccc(Cl)c(Cl)c2)C1c1cccc2c1OCO2)C(=O)O (centres undefined) [Integrase inhibitor, 2{1,1,2}] | 7.17 and 7.54
CCOc1ccccc1C1C(C(=O)NCc2ccc(Cl)c(Cl)c2)C(=O)C(=O)N1CCCCC(NC(C)=O)C(=O)O (centres undefined) [Integrase inhibitor, 2{1,2,2}] | 7.24 and 7.59
CCOCCCN1C(=O)C(=O)C(C(=O)NCc2ccc(Cl)c(Cl)c2)C1c1ccccc1Oc1ccccc1 (centres undefined) [Integrase inhibitor, 2{1,4,4}] | 7.05 and 7.10
COc1ccc(CNC(=O)C2C(=O)C(=O)N(CC3CC3)C2c2ccccc2C(F)(F)F)cc1 (centres undefined) [Integrase inhibitor, 2{3,5,1}] | 4.92 and 4.99
NCc1ccc(Cl)c(Cl)c1 [Integrase inhibitor, R1{1}] | 5.87
NCc1ccc(F)cc1 [Integrase inhibitor, R1{2}] | 5.39
NCc1cc(Cl)cc(Cl)c1 [Integrase inhibitor, R1{4}] | 5.61
CN [Integrase inhibitor, R3{3}] | 5.57

Further lines, results first:

pIC50 | Structure (SMILES)
5.52 | O=Cc1cccc2c1OCO2 [Integrase inhibitor, R2{1}]
5.99 | CCOc1ccccc1C=O [Integrase inhibitor, R2{2}]
5.69 | O=Cc1ccccc1OCC(=O)O [Integrase inhibitor, R2{3}]
5.76 | O=Cc1ccccc1OCc1ccccc1 [Integrase inhibitor, R2{4}]
5.10 | O=Cc1ccccc1C(F)(F)F [Integrase inhibitor, R2{5}]
5.44 | NCC1CC1 [Integrase inhibitor, R3{1}]
5.74 | CC(=O)N[C@H](CCCCN)C(=O)O [Integrase inhibitor, R3{2}]
5.68 | CCOCCCN [Integrase inhibitor, R3{4}]
5.38 | CCOCCN [Integrase inhibitor, R3{5}]
